Reference: BindingDB's records for doi:10.1021/jm021012t (F. Hoffmann-La Roche, 2003)

Legend:
[1] = target: T1, P-glycoprotein (ABCB1, MDR1) (Homo sapiens, UniProt P08183); assay: TP_TRANSPORTER: inhibition of Calcein-AM efflux in MDR1-expressing LLC-PK1 cells; conditions: probe calcein-AM
[2] = target: T1, P-glycoprotein (ABCB1, MDR1); assay: Inhibition of P-glycoprotein, human L-MDR1 expressed in LLC-PK1 epithelial cells using calcein-AM polarisation assay; conditions: LLC-PK1 epithelial cells expressing human MDR1 (L-MDR1), probe calcein-AM

T1 sequence (P08183 whole entry): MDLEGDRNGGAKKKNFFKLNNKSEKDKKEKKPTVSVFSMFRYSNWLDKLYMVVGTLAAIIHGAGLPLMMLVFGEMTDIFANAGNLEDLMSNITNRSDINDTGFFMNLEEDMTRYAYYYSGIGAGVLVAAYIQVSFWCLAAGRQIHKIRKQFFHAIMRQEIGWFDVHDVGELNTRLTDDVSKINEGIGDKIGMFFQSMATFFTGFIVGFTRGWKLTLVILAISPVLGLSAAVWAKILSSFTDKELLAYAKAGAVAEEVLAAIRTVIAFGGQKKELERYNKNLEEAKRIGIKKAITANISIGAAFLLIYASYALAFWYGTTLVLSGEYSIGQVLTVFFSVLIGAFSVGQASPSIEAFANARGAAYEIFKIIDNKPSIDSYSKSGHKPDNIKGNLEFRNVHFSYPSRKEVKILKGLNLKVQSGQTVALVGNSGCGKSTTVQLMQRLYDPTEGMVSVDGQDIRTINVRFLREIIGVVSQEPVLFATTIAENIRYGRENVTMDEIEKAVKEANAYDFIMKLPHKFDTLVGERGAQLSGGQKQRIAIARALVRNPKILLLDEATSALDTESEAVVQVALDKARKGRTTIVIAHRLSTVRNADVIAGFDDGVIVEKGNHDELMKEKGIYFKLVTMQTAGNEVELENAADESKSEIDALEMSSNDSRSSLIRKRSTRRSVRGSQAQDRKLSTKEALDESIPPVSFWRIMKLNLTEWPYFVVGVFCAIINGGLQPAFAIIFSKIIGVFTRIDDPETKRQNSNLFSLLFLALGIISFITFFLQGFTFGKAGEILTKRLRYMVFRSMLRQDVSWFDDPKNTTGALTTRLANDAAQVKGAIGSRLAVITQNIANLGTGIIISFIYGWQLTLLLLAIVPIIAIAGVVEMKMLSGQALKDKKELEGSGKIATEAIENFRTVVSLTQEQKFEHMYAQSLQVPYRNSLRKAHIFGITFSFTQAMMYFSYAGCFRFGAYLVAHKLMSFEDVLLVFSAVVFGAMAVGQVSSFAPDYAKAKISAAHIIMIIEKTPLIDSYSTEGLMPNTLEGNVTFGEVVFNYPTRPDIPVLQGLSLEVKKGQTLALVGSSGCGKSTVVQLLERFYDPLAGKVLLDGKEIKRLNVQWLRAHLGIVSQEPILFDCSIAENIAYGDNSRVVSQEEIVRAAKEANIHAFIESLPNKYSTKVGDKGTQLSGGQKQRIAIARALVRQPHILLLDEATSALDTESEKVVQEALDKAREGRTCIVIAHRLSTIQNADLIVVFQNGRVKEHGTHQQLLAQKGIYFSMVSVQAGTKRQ

SMILES: CC[C@H](C)[C@H]1O[C@]2(CC[C@@H]1C)C[C@@H]1C[C@@H](C/C=C(\C)[C@@H](O[C@H]3C[C@H](OC)[C@@H](O[C@H]4C[C@H](OC)[C@@H](O)[C@H](C)O4)[C@H](C)O3)[C@@H](C)/C=C/C=C3\CO[C@@H]4[C@H](O)C(C)=C[C@@H](C(=O)O1)[C@]34O)O2 [ABAMECTIN]
- IC50 [1]: 100 nM
- IC50 [2]: 100 nM
